Laboratory results as given in ChEMBL document CHEMBL5715942, “A novel histone deacetylase 8 (HDAC8)-specific inhibitor PCI-34051 induces apoptosis in T-cell lymphomas” (Leukemia, 2008).
Active and inactive are the calls of the source. The calls are words filed in the database; no cut-off is given here.

Tests used:
A549 = experiment: Induction of apoptosis in human A549 cells incubated for 72 hrs by Annexin-V staining based flow cytometry analysis relative to control; assay type: functional
MCF7 [1] = experiment: Anti-proliferative activity against human MCF7 cells assessed as growth inhibition incubated for 72 hrs by alamar blue staining based fluorometric assay; assay type: functional
OVCAR-3 [2] = experiment: Anti-proliferative activity against human OVCAR-3 cells assessed as growth inhibition incubated for 72 hrs by alamar blue staining based fluorometric assay; assay type: functional
RKO [3] = experiment: Anti-proliferative activity against human RKO cells assessed as growth inhibition incubated for 72 hrs by alamar blue staining based fluorometric assay; assay type: functional
U-87 MG [4] = experiment: Anti-proliferative activity against human U87 cells assessed as growth inhibition incubated for 72 hrs by alamar blue staining based fluorometric assay; assay type: functional, U-87MG ATCC
HeLa = experiment: Anti-proliferative activity against human HeLa cells assessed as growth inhibition incubated for 72 hrs by alamar blue staining based fluorometric assay; assay type: functional
HCT-116 [5] = experiment: Anti-proliferative activity against human HCT-116 cells assessed as growth inhibition incubated for 72 hrs by alamar blue staining based fluorometric assay; assay type: functional
HCT-116 [6] = experiment: Induction of apoptosis in human HCT-116 cells incubated for 72 hrs by Annexin-V staining based flow cytometry analysis relative to control; assay type: functional
U-87 MG [7] = experiment: Induction of apoptosis in human U87 cells incubated for 72 hrs by Annexin-V staining based flow cytometry analysis relative to control; assay type: functional, U-87MG ATCC
RKO [8] = experiment: Induction of apoptosis in human RKO cells incubated for 72 hrs by Annexin-V staining based flow cytometry analysis relative to control; assay type: functional
MCF7 [9] = experiment: Induction of apoptosis in human MCF7 cells incubated for 72 hrs by Annexin-V staining based flow cytometry analysis relative to control; assay type: functional
OVCAR-3 [10] = experiment: Induction of apoptosis in human OVCAR-3 cells incubated for 72 hrs by Annexin-V staining based flow cytometry analysis relative to control; assay type: functional
Jurkat [11] = experiment: Anti-proliferative activity against human Jurkat cells assessed as growth inhibition incubated for 72 hrs by alamar blue staining based fluorometric assay; assay type: functional
HuT78 [12] = experiment: Anti-proliferative activity against human HuT78 cells assessed as growth inhibition incubated for 72 hrs by alamar blue staining based fluorometric assay; assay type: functional
CCRF-HSB-2 [13] = experiment: Anti-proliferative activity against human CCRF-HSB-2 cells assessed as growth inhibition incubated for 72 hrs by alamar blue staining based fluorometric assay; assay type: functional
MOLT-4 [14] = experiment: Anti-proliferative activity against human MOLT-4 cells assessed as growth inhibition incubated for 72 hrs by alamar blue staining based fluorometric assay; assay type: functional
SUD4 [15] = experiment: Anti-proliferative activity against human SU-DHL-4 cells assessed as growth inhibition incubated for 72 hrs by alamar blue staining based fluorometric assay; assay type: functional
Ramos [16] = experiment: Anti-proliferative activity against human Ramos cells assessed as growth inhibition incubated for 72 hrs by alamar blue staining based fluorometric assay; assay type: functional
Raji [17] = experiment: Anti-proliferative activity against human Raji cells assessed as growth inhibition incubated for 72 hrs by alamar blue staining based fluorometric assay; assay type: functional
DB [18] = experiment: Anti-proliferative activity against human DB cells assessed as growth inhibition incubated for 72 hrs by alamar blue staining based fluorometric assay; assay type: functional
K562 [19] = experiment: Anti-proliferative activity against human K562 cells assessed as growth inhibition incubated for 72 hrs by alamar blue staining based fluorometric assay; assay type: functional
THP-1 [20] = experiment: Anti-proliferative activity against human THP-1 cells assessed as growth inhibition incubated for 72 hrs by alamar blue staining based fluorometric assay; assay type: functional
RPMI-8226 [21] = experiment: Anti-proliferative activity against human RPMI-8226 cells assessed as growth inhibition incubated for 72 hrs by alamar blue staining based fluorometric assay; assay type: functional
SUD4 [22] = experiment: Induction of apoptosis in human SU-DHL-4 cells assessed as cell death at 5 uM incubated for 2 days by Annexin-V staining based flow cytometry analysis; assay type: functional; conditions: time 2.0 day
Jurkat [23] = experiment: Induction of apoptosis in human Jurkat cells assessed as cell death at 5 uM incubated for 2 days by Annexin-V staining based flow cytometry analysis; assay type: functional; conditions: time 2.0 day
HuT78 [24] = experiment: Induction of apoptosis in human HuT78 cells assessed as cell death at 5 uM incubated for 2 days by Annexin-V staining based flow cytometry analysis; assay type: functional; conditions: time 2.0 day
CCRF-HSB-2 [25] = experiment: Induction of apoptosis in human CCRF-HSB-2 cells assessed as cell death at 5 uM incubated for 2 days by Annexin-V staining based flow cytometry analysis; assay type: functional; conditions: time 2.0 day
MOLT-4 [26] = experiment: Induction of apoptosis in human MOLT-4 cells assessed as cell death at 5 uM incubated for 2 days by Annexin-V staining based flow cytometry analysis; assay type: functional; conditions: time 2.0 day
Ramos [27] = experiment: Induction of apoptosis in human Ramos cells assessed as cell death at 5 uM incubated for 2 days by Annexin-V staining based flow cytometry analysis; assay type: functional; conditions: time 2.0 day
Raji [28] = experiment: Induction of apoptosis in human Raji cells assessed as cell death at 5 uM incubated for 2 days by Annexin-V staining based flow cytometry analysis; assay type: functional; conditions: time 2.0 day
DB [29] = experiment: Induction of apoptosis in human DB cells assessed as cell death at 5 uM incubated for 2 days by Annexin-V staining based flow cytometry analysis; assay type: functional; conditions: time 2.0 day
THP-1 [30] = experiment: Induction of apoptosis in human THP-1 cells assessed as cell death at 5 uM incubated for 2 days by Annexin-V staining based flow cytometry analysis; assay type: functional; conditions: time 2.0 day
K562 [31] = experiment: Induction of apoptosis in human K562 cells assessed as cell death at 5 uM incubated for 2 days by Annexin-V staining based flow cytometry analysis; assay type: functional; conditions: time 2.0 day
RPMI-8226 [32] = experiment: Induction of apoptosis in human RPMI-8226 cells assessed as cell death at 5 uM incubated for 2 days by Annexin-V staining based flow cytometry analysis; assay type: functional; conditions: time 2.0 day
Jurkat [33] = experiment: Cytotoxicity in human Jurkat cells assessed as tubulin acetylation at <25 uM incubated for 24 hrs by Western blotting analysis; assay type: functional, cell-based
Jurkat [34] = experiment: Cytotoxicity in human Jurkat cells assessed as histone acetylation at <25 uM incubated for 24 hrs by Western blotting analysis; assay type: functional, cell-based
Jurkat [35] = experiment: Induction of apoptosis in human Jurkat cells assessed as increased caspase-3 activity at 5 uM incubated for 12 to 48 hrs by colorimetric assay; assay type: functional, cell-based; conditions: time 12-48 hrs
Jurkat [36] = experiment: Induction of apoptosis in human Jurkat cells assessed as PARP cleavage at 5 uM incubated for 48 hrs by Western blotting analysis; assay type: functional, cell-based
J.gamma1 [37] = experiment: Induction of apoptosis in human J.gamma1 cells assessed as abolished intracellular calcium level at 10 uM incubated for 5 mins in presence of Iodo-1 by spectrofluorimetric analysis; assay type: functional, cell-based
Jurkat [38] = experiment: Induction of apoptosis in human Jurkat cells assessed as increase in intracellular calcium level at 2.5 to 10 uM incubated for 5 mins in presence of Iodo-1 and Ionomycin by spectrofluorimetric analysis; assay type: functional, cell-based; conditions: dose 2.5-10 µM
Jurkat [39] = experiment: Induction of apoptosis in human Jurkat cells assessed as increase in intracellular calcium level incubated for 5 mins in presence of Iodo-1 by spectrofluorimetric analysis; assay type: functional, cell-based; conditions: dose 2.5-10 µM
J.gamma1 [40] = experiment: Induction of apoptosis in human J.gamma1 cells at 5 uM incubated for 24 hrs in presence of thapsigargin by Annexin-V staining based flow cytometry analysis relative to control; assay type: functional
Jurkat [41] = experiment: Downregulation of apoptosis in human Jurkat cells incubated for 24 hrs in presence of BAPTA-AM by Annexin-V staining based flow cytometry analysis; assay type: functional, cell-based; conditions: dose 10.0 µM
Jurkat [42] = experiment: Induction of apoptosis in human Jurkat cells at 5 uM incubated for 24 hrs in presence of thapsigargin by Annexin-V staining based flow cytometry analysis relative to control; assay type: functional
Jurkat [43] = experiment: Downregulation of apoptosis in human Jurkat cells incubated for 2 days in presence of U73122 by Annexin-V staining based flow cytometry analysis; assay type: functional, cell-based; conditions: dose 10.0 µM, time 2.0 day
Jurkat [44] = experiment: Downregulation of apoptosis in human Jurkat cells at 10 uM incubated for 2 days in presence of U-73343 by Annexin-V staining based flow cytometry analysis; assay type: functional, cell-based; conditions: time 2.0 day
J.gamma1 [45] = experiment: Induction of apoptosis in human J.gamma1 cells at 10 uM incubated for 2 days in presence of U-73122 by Annexin-V staining based flow cytometry analysis; assay type: functional, cell-based; conditions: time 2.0 day
J.gamma1 [46] = experiment: Induction of apoptosis in human J.gamma1 cells at 10 uM incubated for 2 days in presence of U-73343 by Annexin-V staining based flow cytometry analysis; assay type: functional, cell-based; conditions: time 2.0 day
J.gamma1 [47] = experiment: Downregulation of apoptosis in human J.gamma1 cells at 5 uM incubated for 2 days by Annexin-V staining based flow cytometry analysis; assay type: functional, cell-based; conditions: time 2.0 day
Jurkat [48] = experiment: Induction of apoptosis in human Jurkat cells assessed as decrease in intracellular calcium level at 10 uM in presence of Iodo-1 and U73122 by spectrofluorimetric analysis; assay type: functional, cell-based
Jurkat [49] = experiment: Induction of apoptosis in human Jurkat cells assessed as intracellular calcium level at 10 uM in presence of Iodo-1 and U73343 by spectrofluorimetric analysis; assay type: functional, cell-based
Jurkat [50] = experiment: Induction of apoptosis in human Jurkat cells assessed as increase in cytosolic cytochrome c level at 10 uM incubated for 12 to 24 hrs by Western blotting analysis; assay type: functional, cell-based; conditions: time lower 12.0 hrs, time upper […]
J.gamma1 [51] = experiment: Induction of apoptosis in human J.gamma1 cells assessed as cytochrome c release from mitochondria at 10 uM incubated for 12 to 24 hrs by Western blotting analysis; assay type: functional, cell-based; conditions: time lower 12.0 hrs, time upper […]
Jurkat [52] = experiment: Induction of apoptosis in human Jurkat cells assessed as decrease in FL-Bid at 5 uM incubated for 24 hrs by Western blotting analysis
J.gamma1 [53] = experiment: Downregulation of apoptosis in human J.gamma1 cells at 10 uM incubated for 24 hrs in presence of BAPTA-AM by Annexin-V staining based flow cytometry analysis
Jurkat [54] = experiment: Induction of apoptosis in human Jurkat cells assessed as intracellular calcium level at 0.4 uM in presence of Iodo-1 by spectrofluorimetric analysis; assay type: functional, cell-based

## COc1ccc(Cn2ccc3ccc(C(=O)NO)cc32)cc1
A549
  Activity: 0%
MCF7 [1]
  GI50: > 20 µM
OVCAR-3 [2]
  GI50: 6 µM
RKO [3]
  GI50: 14 µM
U-87 MG [4]
  GI50: 17 µM
HeLa
  GI50: > 20 µM
HCT-116 [5]
  GI50: > 20 µM
HCT-116 [6]
  Activity: 3%
U-87 MG [7]
  Activity: 0%
RKO [8]
  Activity: 0%
MCF7 [9]
  Activity: 0%
OVCAR-3 [10]
  Activity: 15%
Jurkat [11]
  GI50: 2.4 µM
HuT78 [12]
  GI50: 4 µM
CCRF-HSB-2 [13]
  GI50: 1.4 µM
MOLT-4 [14]
  GI50: 3.3 µM
SUD4 [15]
  GI50: 8.2 µM
Ramos [16]
  GI50: 6.1 µM
Raji [17]
  GI50: 6.8 µM
DB [18]
  GI50: 21.2 µM
K562 [19]
  GI50: 33.6 µM
THP-1 [20]
  GI50: 15.4 µM
RPMI-8226 [21]
  GI50: 28 µM
SUD4 [22]
  Activity: inactive
Jurkat [23]
  Activity: Active
HuT78 [24]
  Activity: Active
CCRF-HSB-2 [25]
  Activity: Active
MOLT-4 [26]
  Activity: Active
Ramos [27]
  Activity: inactive
Raji [28]
  Activity: inactive
DB [29]
  Activity: inactive
THP-1 [30]
  Activity: inactive
K562 [31]
  Activity: inactive
RPMI-8226 [32]
  Activity: inactive
Jurkat [33]
  Activity: inactive
Jurkat [34]
  Activity: inactive
Jurkat [35]
  Activity: Active
Jurkat [36]
  Activity: Active
J.gamma1 [37]
  Activity: inactive
Jurkat [38]
  Activity: Active
Jurkat [39]
  Activity: Dose-Dependent Effect
J.gamma1 [40]
  Activity: 2%
Jurkat [41]
  Activity: Dose-Dependent Effect
Jurkat [42]
  Activity: > 30%
Jurkat [43]
  Activity: Dose-Dependent Effect
Jurkat [44]
  Activity: inactive
J.gamma1 [45]
  Activity: inactive
J.gamma1 [46]
  Activity: inactive
J.gamma1 [47]
  Activity: Active
Jurkat [48]
  Activity: Active
Jurkat [49]
  Activity: Active
Jurkat [50]
  Activity: Active
J.gamma1 [51]
  Activity: inactive
Jurkat [52]
  Activity: inactive
J.gamma1 [53]
  Activity: inactive

## COc1ccc2c(c1)CC[C@@H]1[C@@H]2CC[C@]2(C)[C@@H](NCCCCCCN3C(=O)C=CC3=O)CC[C@@H]12
Jurkat [54]
  Activity: inactive
